≈ marks a conversion by molar mass, not a printed value. Calls of active or inactive are those of the source. The calls are words filed in the database; no cut-off is given here.
Columns and labels:
Format in all cases: functional, cell-based
B16-F10 [1] = test: Cytotoxicity against mouse B16F10 cells assessed as reduction in cell viability at 100 ug/ml after 24 hrs by MTT assay
HL-60 [2] = test: Cytotoxicity against human HL60 cells assessed as reduction in cell viability at 100 ug/ml after 24 hrs by MTT assay
U-937 = test: Cytotoxicity against human U937 cells assessed as reduction in cell viability at 100 ug/ml after 24 hrs by MTT assay
THP-1 [3] = test: Cytotoxicity against human THP1 cells assessed as reduction in cell viability at 100 ug/ml after 24 hrs by MTT assay
HL-60 [4] = test: Cytotoxicity against human HL60 cells assessed as reduction in cell viability after 24 hrs by MTT assay; conditions: HL-60, 24 h
[5] = Cytotoxicity against human U937 cells assessed as reduction in cell viability after 24 hrs by MTT assay; conditions: U-937, 24 h
THP-1 [6] = test: Cytotoxicity against human THP1 cells assessed as reduction in cell viability after 24 hrs by MTT assay; conditions: THP-1, 24 h
B16-F10 [7] = test: Cytotoxicity against mouse B16F10 cells assessed as reduction in cell viability after 24 hrs by MTT assay; conditions: B16-F10, 24 h

SMILES: CCCCCCCCn1cc(Cn2nc(N)c3c(C(F)(F)F)cc(-c4ccccc4)nc32)nn1
- Activity (B16-F10 [1]): inactive
- Activity (HL-60 [2]): inactive
- Activity (U-937): inactive
- Activity (THP-1 [3]): inactive

SMILES: Nc1nn(Cc2cn(CCC(F)(F)C(F)(F)C(F)(F)C(F)(F)C(F)(F)C(F)(F)F)nn2)c2nc(-c3ccccc3)cc(C(F)(F)F)c12
- Activity (B16-F10 [1]): inactive
- Activity (THP-1 [3]): inactive
- IC50 (HL-60 [4]): 97.6 µg/mL (≈ 138 µM)
- IC50 [5]: 98.2 µg/mL (≈ 139 µM)

SMILES: Nc1nn(Cc2cn(CCC(F)(F)C(F)(F)C(F)(F)C(F)(F)C(F)(F)C(F)(F)C(F)(F)C(F)(F)F)nn2)c2nc(-c3ccccc3)cc(C(F)(F)F)c12
- Activity (B16-F10 [1]): inactive
- Activity (HL-60 [2]): inactive
- Activity (U-937): inactive
- Activity (THP-1 [3]): inactive

SMILES: COc1ccc(-n2cc(Cn3nc(N)c4c(C(F)(F)F)cc(-c5ccccc5)nc43)nn2)cc1
- Activity (B16-F10 [1]): inactive
- Activity (HL-60 [2]): inactive
- Activity (U-937): inactive
- Activity (THP-1 [3]): inactive

SMILES: Nc1nn(Cc2cn(-c3ccc(F)c(Cl)c3)nn2)c2nc(-c3ccccc3)cc(C(F)(F)F)c12
- Activity (B16-F10 [1]): inactive
- Activity (THP-1 [3]): inactive
- IC50 (HL-60 [4]): 35 µg/mL (≈ 71.8 µM)
- IC50 [5]: 99.1 µg/mL (≈ 203 µM)

SMILES: COc1ccc(NC(=O)Cn2cc(Cn3nc(N)c4c(C(F)(F)F)cc(-c5ccccc5)nc43)nn2)cc1
- Activity (B16-F10 [1]): inactive
- Activity (HL-60 [2]): inactive
- Activity (U-937): inactive
- IC50 (THP-1 [6]): 56.7 µg/mL (≈ 109 µM)

SMILES: Nc1nn(Cc2cn(CC(=O)NC3CCCCC3)nn2)c2nc(-c3ccccc3)cc(C(F)(F)F)c12
- IC50 (HL-60 [4]): 42.9 µg/mL (≈ 86.2 µM)
- IC50 (B16-F10 [7]): 99.1 µg/mL (≈ 199 µM)
- IC50 [5]: 89 µg/mL (≈ 179 µM)
- IC50 (THP-1 [6]): 64.8 µg/mL (≈ 130 µM)

SMILES: Cc1c(Br)cccc1-n1cc(Cn2nc(N)c3c(C(F)(F)F)cc(-c4ccccc4)nc32)nn1
- Activity (B16-F10 [1]): inactive
- Activity (HL-60 [2]): inactive
- Activity (THP-1 [3]): inactive
- IC50 [5]: 97.2 µg/mL (≈ 184 µM)

SMILES: Nc1nn(Cc2cn(CC(=O)Nc3ccccc3Br)nn2)c2nc(-c3ccccc3)cc(C(F)(F)F)c12
- Activity (B16-F10 [1]): inactive
- Activity (U-937): inactive
- IC50 (HL-60 [4]): 27.2 µg/mL (≈ 47.6 µM)
- IC50 (THP-1 [6]): 95.3 µg/mL (≈ 167 µM)

SMILES: Nc1nn(Cc2cn(CC(=O)Nc3ccccc3)nn2)c2nc(-c3ccccc3)cc(C(F)(F)F)c12
- Activity (B16-F10 [1]): inactive
- Activity (U-937): inactive
- IC50 (HL-60 [4]): 96.3 µg/mL (≈ 196 µM)
- IC50 (THP-1 [6]): 54.6 µg/mL (≈ 111 µM)

SMILES: CCCCCCCCCCn1cc(Cn2nc(N)c3c(C(F)(F)F)cc(-c4ccccc4)nc32)nn1
- IC50 (HL-60 [4]): 29.9 µg/mL (≈ 59.8 µM)
- IC50 (B16-F10 [7]): 84.9 µg/mL (≈ 170 µM)
- IC50 [5]: 27.1 µg/mL (≈ 54.3 µM)
- IC50 (THP-1 [6]): 48.7 µg/mL (≈ 97.4 µM)

SMILES: Nc1nn(Cc2cn(-c3ccc(Br)c(F)c3)nn2)c2nc(-c3ccccc3)cc(C(F)(F)F)c12
- Activity (B16-F10 [1]): inactive
- Activity (HL-60 [2]): inactive
- Activity (U-937): inactive
- Activity (THP-1 [3]): inactive

SMILES: Nc1nn(Cc2cn(-c3cccc(Cl)c3)nn2)c2nc(-c3ccccc3)cc(C(F)(F)F)c12
- Activity (B16-F10 [1]): inactive
- Activity (HL-60 [2]): inactive
- Activity (THP-1 [3]): inactive

SMILES: Nc1nn(Cc2cn(-c3ccc(O)c([N+](=O)[O-])c3)nn2)c2nc(-c3ccccc3)cc(C(F)(F)F)c12
- IC50 (B16-F10 [7]): 42.3 µg/mL (≈ 85.1 µM)
- IC50 [5]: 41.3 µg/mL (≈ 83.1 µM)
- IC50 (THP-1 [6]): 36.2 µg/mL (≈ 73 µM)

SMILES: Nc1nn(Cc2cn(-c3ccc([N+](=O)[O-])cc3)nn2)c2nc(-c3ccccc3)cc(C(F)(F)F)c12
- Activity (B16-F10 [1]): inactive
- Activity (HL-60 [2]): inactive
- Activity (THP-1 [3]): inactive
- IC50 [5]: 98.8 µg/mL (≈ 206 µM)

SMILES: Nc1nn(Cc2cn(CC(=O)Nc3cccc(Cl)c3)nn2)c2nc(-c3ccccc3)cc(C(F)(F)F)c12
- Activity (B16-F10 [1]): inactive
- Activity (HL-60 [2]): inactive
- Activity (U-937): inactive
- IC50 (THP-1 [6]): 37 µg/mL (≈ 70.3 µM)

SMILES: Nc1nn(Cc2cn(-c3ccc(F)cc3)nn2)c2nc(-c3ccccc3)cc(C(F)(F)F)c12
- Activity (B16-F10 [1]): inactive
- Activity (HL-60 [2]): inactive
- Activity (U-937): inactive
- Activity (THP-1 [3]): inactive

SMILES: Nc1nn(Cc2cn(CC(=O)Nc3ccc(F)cc3Br)nn2)c2nc(-c3ccccc3)cc(C(F)(F)F)c12
- IC50 (HL-60 [4]): 63.6 µg/mL (≈ 108 µM)
- IC50 (B16-F10 [7]): 98 µg/mL (≈ 166 µM)
- IC50 [5]: 98.3 µg/mL (≈ 167 µM)
- IC50 (THP-1 [6]): 65.6 µg/mL (≈ 111 µM)

SMILES: Cc1ccc(-n2cc(Cn3nc(N)c4c(C(F)(F)F)cc(-c5ccccc5)nc43)nn2)cc1
- Activity (B16-F10 [1]): inactive
- Activity (HL-60 [2]): inactive
- Activity (U-937): inactive
- IC50 (THP-1 [6]): 98.6 µg/mL (≈ 219 µM)

SMILES: CCCCn1cc(Cn2nc(N)c3c(C(F)(F)F)cc(-c4ccccc4)nc32)nn1
- Activity (B16-F10 [1]): inactive
- Activity (U-937): inactive
- IC50 (HL-60 [4]): 36.7 µg/mL (≈ 88.4 µM)
- IC50 (THP-1 [6]): 46.1 µg/mL (≈ 111 µM)

SMILES: Nc1nn(Cc2cn(CC(=O)Nc3c(F)cccc3F)nn2)c2nc(-c3ccccc3)cc(C(F)(F)F)c12
- IC50 (HL-60 [4]): 32.8 µg/mL (≈ 62 µM)
- IC50 (B16-F10 [7]): 41.6 µg/mL (≈ 78.7 µM)
- IC50 [5]: 30.6 µg/mL (≈ 58 µM)
- IC50 (THP-1 [6]): 43.3 µg/mL (≈ 81.9 µM)

SMILES: Cc1ccc(NC(=O)Cn2cc(Cn3nc(N)c4c(C(F)(F)F)cc(-c5ccccc5)nc43)nn2)cc1
- Activity (B16-F10 [1]): inactive
- Activity (HL-60 [2]): inactive
- IC50 [5]: 65.3 µg/mL (≈ 129 µM)
- IC50 (THP-1 [6]): 41.5 µg/mL (≈ 81.9 µM)

SMILES: CCCCCCn1cc(Cn2nc(N)c3c(C(F)(F)F)cc(-c4ccccc4)nc32)nn1
- Activity (B16-F10 [1]): inactive
- Activity (HL-60 [2]): inactive
- Activity (U-937): inactive
- Activity (THP-1 [3]): inactive

SMILES: Nc1nn(Cc2cn(CC(=O)Nc3cccc(F)c3)nn2)c2nc(-c3ccccc3)cc(C(F)(F)F)c12
- Activity (B16-F10 [1]): inactive
- IC50 (HL-60 [4]): 63.9 µg/mL (≈ 125 µM)
- IC50 [5]: 43.5 µg/mL (≈ 85.3 µM)
- IC50 (THP-1 [6]): 99.5 µg/mL (≈ 195 µM)

SMILES: Nc1nn(Cc2cn(-c3cccc(C(F)(F)F)c3)nn2)c2nc(-c3ccccc3)cc(C(F)(F)F)c12
- Activity (B16-F10 [1]): inactive
- Activity (HL-60 [2]): inactive
- Activity (U-937): inactive
- Activity (THP-1 [3]): inactive

SMILES: Nc1nn(Cc2cn(CC(=O)Nc3ccc(F)cc3)nn2)c2nc(-c3ccccc3)cc(C(F)(F)F)c12
- Activity (B16-F10 [1]): inactive
- Activity (U-937): inactive
- IC50 (HL-60 [4]): 44.8 µg/mL (≈ 87.7 µM)
- IC50 (THP-1 [6]): 49.5 µg/mL (≈ 97.1 µM)

SMILES: Nc1nn(Cc2cn(-c3ccccc3)nn2)c2nc(-c3ccccc3)cc(C(F)(F)F)c12
- Activity (B16-F10 [1]): inactive
- Activity (HL-60 [2]): inactive
- Activity (U-937): inactive
- Activity (THP-1 [3]): inactive

SMILES: COc1cc([C@@H]2c3cc4c(cc3[C@@H](O[C@@H]3O[C@@H]5CO[C@@H](C)O[C@H]5[C@H](O)[C@H]3O)[C@H]3COC(=O)[C@H]23)OCO4)cc(OC)c1O [ETOPOSIDE]
- IC50 (HL-60 [4]): 2.13 µg/mL (≈ 3.62 µM)
- IC50 (B16-F10 [7]): 3.8 µg/mL (≈ 6.46 µM)
- IC50 [5]: 6.7 µg/mL (≈ 11.4 µM)
- IC50 (THP-1 [6]): 6.34 µg/mL (≈ 10.8 µM)
